Biological target: T1, recombinant human mPGES-1 (Homo sapiens, UniProt O14684)
T1 construct: made in house; host or cells: Rosetta E. coli (microsomal/membrane fraction)
T1 sequence (O14684 1-152): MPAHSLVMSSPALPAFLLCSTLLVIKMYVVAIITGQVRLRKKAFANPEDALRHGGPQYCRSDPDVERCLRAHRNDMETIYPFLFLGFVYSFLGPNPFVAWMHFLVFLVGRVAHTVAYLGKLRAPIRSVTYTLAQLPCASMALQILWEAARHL
Experiment: mPGES-1 inhibition test (microsomes, HTRF detection of PGE2)
Format: biochemical
Experimental: Microsomes from Rosetta E. coli bacteria expressing recombinant human mPGES-1 is dissolved in 0.1 M KPi pH 7.4 buffer containing 2.5 mM GSH. 50 μl of the enzyme is subsequently dispensed in a 384-well plate. 0.5 μl of the inhibitor dissolved in DMSO at is thereafter added to each well and incubated for 25 minutes at room temperature.
Subsequently, 2 μl of PGH2 dissolved in an appropriate solvent is added to each well and after one minute the acidified stop solution containing FeCl2 is added. 4 μl of the total volume is transferred to a separate plate and diluted 750-fold in two separate steps before HTRF detection of PGE2.
The HTRf detection is performed by the use of a commercially available kit from CisBio essentially according to the manufacturer's protocol. Briefly, 10 μl of the diluted sample is transferred to a white 384-well plate. 5 μl of d2 and 5 μl Eu3+-Cryptate labeled anti-PGE2 is added to each well containing samples by the use of a Multidrop. The plate is covered with a plastic self-adhesive film, centrifuged at 1200 rpm for 1 minute and subsequently stored at +4° C. over night.
After over night incubation the fluorescence is measured by the use of an appropriate microplate reader. The fluorescence of europium cryptate, and d2 are measured using the following excitation and emission wavelength, europium cryptate: λmax^ex=307 nm, λmax^em=620 nm and d2: λmax^ex=620 nm, λmax^em=665 nm), respectively. The extent of the specific FRET is measured as a ratio of the emission intensity at 665 nm vs. that at 620 nm. A standard curve using synthetic PGE2 is used to quantify the amount of PGE2 in unknown samples.

Compound | inhibition at 10 µM [%] | % inhib. (percentage inhibition of mPGES-1 at 10 μM (unless otherwise specified)) [%]
CC1(C)CCC(NC(=O)c2cc3nc(Nc4c(Cl)cccc4Cl)[nH]c3cn2)CC1 [Example 83, 2-(2,6-Dichloro-phenylamino)-3H-imidazo[4,5-c]pyridine-6-carboxylic acid (4,4-dimethyl-cyclohexyl)-amide] | 100 | 
O=C(NC1CCCCC1)c1cc2[nH]c(Nc3c(Cl)cccc3Cl)nc2cn1 [Example 137, 2-(2,6-Dichloro-phenylamino)-3H-imidazo[4,5-c]pyridine-6-carboxylic acid-cyclohexyl-amide] | 100 | 
Cn1c(Nc2c(F)cccc2Cl)nc2cc(C(=O)Nc3cc(C(F)(F)F)ccn3)ncc21 [Example 360, 2-(2-Chloro-6-fluoro-phenylamino)-3-methyl-N-(4-trifluoromethyl-pyridin-2-yl)-3-H-imidazo[4,5-c]pyridine-6-carboxamide] | 100 | 
Cn1c(Nc2c(F)cccc2Cl)nc2cc(C(=O)Nc3ccc(Br)cc3)ncc21 [Example 361, N-(4-Bromophenyl)-2-(2-chloro-6-fluoro-phenylamino)-3-methyl-3H-imidazo[4,5-c]pyridine-6-carboxamide] | 100 | 
Cn1c(Nc2c(Cl)cccc2Cl)nc2cc(C(=O)Nc3cc(C(F)(F)F)ccn3)ncc21 [Example 364, 2-(2,6-Dichlorophenylamino)-3-methyl-N-(4-trifluoromethyl-pyridin-2-yl)-3H-imidazo[4,5-c]pyridine-6-carboxamide] | 100 | 
Cn1c(Nc2c(Cl)cccc2Cl)nc2cc(C(=O)Nc3ccc(Br)cc3)ncc21 [Example 365, N-(4-Bromophenyl)-2-(2,6-dichlorophenylamino)-3-methyl-3H-imidazo[4,5-c]pyridine-6-carboxamide] | 100 | 
O=C(Nc1cc(C(F)(F)F)ccn1)c1cc2[nH]c(Nc3c(Cl)cncc3Cl)nc2cn1 [Example 366, 2-(3,5-Dichloropyridin-4-ylamino)-N-(4-trifluoromethyl-pyridin-2-yl)-1H-imidazo[4,5-c]pyridine-6-carboxamide] | 100 | 
Cn1c(Nc2c(F)cccc2Cl)nc2cc(C(=O)NC3CCC(C)(C)CC3)ncc21 [Example 389, 2-(2-Chloro-6-fluorophenylamino)-N-(4,4-dimethylcyclohexyl)-3-methyl-3H-imidazo[4,5-c]-pyridine-6-carboxamide] | 100 | 
CC(C)(C)c1ccnc(NC(=O)c2cc3[nH]c(Nc4c(Cl)cccc4Cl)nc3cn2)c1 [Example 396, N-(4-tert.-Butyl-pyridin-2-yl)-2-(2,6-dichlorophenylamino)-1H-imidazo[4,5-c]pyridine-6-carboxamide] | 100 | 
Cn1c(Nc2c(Cl)cccc2Cl)nc2cc(C(=O)NC3CCC(C)(C)CC3)ncc21 [Example 406, 2-(2,6-Dichlorophenylamino)-N-(4,4-dimethylcyclohexyl)-3-methyl-3H-imidazo[4,5-c]pyridine-6-carboxamide] | 100 | 
O=C(Nc1cc(C(F)(F)F)ccn1)c1cc2[nH]c(Nc3c(Cl)cccc3Cl)nc2cn1 [Example 414, 2-(2,6-Dichlorophenylamino)-N-(4-trifluoromethyl-pyridin-2-yl)-1H-imidazo[4,5-c]pyridine-6-carboxamide] | 100 | 
Cn1c(Nc2c(F)cccc2Cl)nc2cc(C(=O)NC3CCC4(CC3)CC4)ncc21 [Example 417, 2-(2-Chloro-6-fluoro-phenylamino)-3-methyl-N-(spiro[2.5]octan-6-yl)-3H-imidazo[4,5-c]pyridine-6-carboxamide] | 100 | 
Cn1c(Nc2c(Cl)cccc2Cl)nc2cc(C(=O)N[C@H]3CC[C@H](C(F)(F)F)CC3)ncc21 [Example 424, 2-(2,6-Dichlorophenylamino)-3-methyl-N-((1r,4r)-4-trifluoromethyl-cyclohexyl)-3H-imidazo[4,5-c]pyridine-6-carboxamide] | 100 | 
Cn1c(Nc2c(Cl)cccc2Cl)nc2cc(C(=O)NC3CCC4(CC3)CC4)ncc21 [Example 425, 2-(2,6-Dichlorophenylamino)-3-methyl-N-(spiro[2.5]octan-6-yl)-3H-imidazo[4,5-c]-pyridine-6-carboxamide] | 100 | 
Cc1cnc(NC(=O)c2cc3[nH]c(Nc4c(Cl)cccc4Cl)nc3cn2)cc1Cl [Example 427, N-(4-Chloro-5-methyl-pyridin-2-yl)-2-(2,6-dichlorophenylamino)-1H-imidazo[4,5-c]pyridine-6-carboxamide] | 98 | 
Cn1c(Nc2c(F)cccc2Cl)nc2cc(C(=O)N[C@H]3CC[C@H](C(F)(F)F)CC3)ncc21 [Example 431, 2-(2-Chloro-6-fluorophenylamino)-3-methyl-N-((1r,4r)-4-trifluoromethyl-cyclohexyl)-3H-imidazo[4,5-c]pyridine-6-carboxamide] | 100 | 
O=C(Nc1cc(OC2CCCC2)ccn1)c1cc2[nH]c(Nc3c(Cl)cccc3Cl)nc2cn1 [Example 440, N-(4-(Cyclopentyloxy)pyridin-2-yl)-2-(2,6-dichlorophenylamino)-1H-imidazo[4,5-c]pyridine-6-carboxamide] | 100 | 
Cn1c(Nc2c(F)cccc2Cl)nc2cc(C(=O)NC3CCCCC3)ncc21 [Example 444, 2-(2-Chloro-6-fluorophenylamino)-N-cyclohexyl-3-methyl-3H-imidazo[4,5-c]-pyridine-6-carboxamide] | 100 | 
O=C(Nc1cc(C2CC2)ccn1)c1cc2[nH]c(Nc3c(Cl)cccc3Cl)nc2cn1 [Example 445, N-(4-Cyclopropylpyridin-2-yl)-2-(2,6-dichlorophenylamino)-1H-imidazo[4,5-c]-pyridine-6-carboxamide] | 98 | 
O=C(NC1CCC2(CC1)CC2)c1cc2[nH]c(Nc3c(Cl)cccc3Cl)nc2cn1 [Example 451, 2-(2,6-Dichlorophenylamino)-N-(spiro[2.5]octan-6-yl)-1H-imidazo[4,5-c]pyridine-6-carboxamide] | 99 | 
Cn1c(Nc2c(Cl)cccc2Cl)nc2cc(C(=O)Nc3cc(C4CC4)ccn3)ncc21 [Example 462, N-(4-Cyclopropylpyridin-2-yl)-2-(2,6-dichlorophenylamino)-3-methyl-3H-imidazo[4,5-c]pyridine-6-carboxamide] | 94 | 
Cn1c(Nc2c(Cl)cccc2Cl)nc2cc(C(=O)Nc3ccc(Br)cc3)cnc21 [Example 463] |  | 97
Cn1c(Nc2c(Cl)cncc2Cl)nc2cc(C(=O)Nc3ccc(Br)cc3)ncc21 [Example 472, N-(4-Bromophenyl)-2-(3,5-dichloropyridin-4-ylamino)-3-methyl-3H-imidazo[4,5-c]-pyridine-6-carboxamide] | 96 | 
O=C(NCc1ccccc1C(F)(F)F)c1cc2[nH]c(Nc3c(Cl)cccc3Cl)nc2cn1 [Example 477, 2-(2,6-Dichlorophenylamino)-N-(2-trifluoromethyl-benzyl)-1H-imidazo[4,5-c]pyridine-6-carboxamide] | 97 | 
Cn1c(Nc2c(Cl)cncc2Cl)nc2cc(C(=O)NC3CCC(C)(C)CC3)ncc21 [Example 478, 2-(3,5-Dichloropyridin-4-ylamino)-N-(4,4-dimethylcyclohexyl)-3-methyl-3H-imidazo[4,5-c]pyridine-6-carboxamide] | 100 | 
O=C(N[C@H]1CC[C@H](C(F)(F)F)CC1)c1cc2[nH]c(Nc3c(Cl)cccc3Cl)nc2cn1 [Example 481, 2-(2,6-Dichlorophenylamino)-N-((1r,4r)-4-trifluoromethyl-cyclohexyl)-1H-imidazo[4,5-c]pyridine-6-carboxamide] | 98 | 
Cn1c(Nc2c(Cl)cncc2Cl)nc2cc(C(=O)Nc3cc(C(F)(F)F)ccn3)ncc21 [Example 482, 2-(3,5-Dichloropyridin-4-ylamino)-3-methy-N-(4-trifluoromethyl-pyridin-2-yl)-3H-imidazo[4,5-c]pyridine-6-carboxamide] | 98 | 
Cn1c(Nc2c(Cl)cccc2Cl)nc2cc(C(=O)NC3CCCCC3)ncc21 [Example 487, N-Cyclohexyl-2-(2,6-dichlorophenylamino)-3-methyl-3H-imidazo[4,5-c]pyridine-6-carboxamide] | 100 | 
O=C(Nc1cc(OC2CCOC2)ccn1)c1cc2[nH]c(Nc3c(Cl)cccc3Cl)nc2cn1 (stereo not drawn) [Example 495, 2-(2,6-Dichlorophenylamino)-N-(4-(tetrahydrofuran-3-yl-oxy)-pyridin-2-yl)-1H-imidazo[4,5-c]pyridine-6-carboxamide] | 86 | 
Cn1c(Nc2c(F)cccc2Cl)nc2cc(C(=O)NCc3ncccc3C(F)(F)F)ncc21 [Example 504, 2-(2-Chloro-6-fluorophenylamino)-3-methyl-N-((3-trifluoromethyl-pyridin-2-yl)-methyl)-3H-imidazo[4,5-c]pyridine-6-carboxamide] | 100 | 
